Reference: patent US20250290117A1, “MOLECULAR PHENOTYPIC ANTIMICROBIAL SUSCEPTIBILITY TESTING” (priority 2024, published 2025)

What was measured:
Type in all cases: cell-based
Escherichia coli [1] = assay: Traditional culture-based antimicrobial susceptibility test
From the text: Table 3 illustrates the results of an example antimicrobial agent susceptibility test of the current application versus a traditional culture-based antimicrobial agent susceptibility test for multiple Escherichia coli isolates, in accordance with one or more embodiments of the disclosure. These specimens underwent extraction or DNA purification prior to PCR. As in Tables 1 and 2, the results of the test of the current application are similar to the results from the traditional test. […]
Table 8 illustrates the results of an example antimicrobial agent susceptibility test of the current application versus a traditional culture-based antimicrobial agent susceptibility test for a low level positive with <10,000 cells/mL in the original specimen. These specimens were tested with direct PCR (e.g., no extraction DNA purification step prior to PCR) after 16 hours of incubation. As in Tables 1, 2, 3, 5, and 7, the results of the test are similar to the traditional test. […]

[2] = tested on: pathogens of clinical samples; assay: Molecular phenotypic antimicrobial susceptibility test of clinical samples, direct PCR without a separate DNA purification step (Table 6)
Outline: (§1)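 Specimens are first pre-incubated in medium, then diluted to 0.5 McFarland guided by optical density. They are exposed 12-16 h to antimicrobials at sensitivity breakpoints. Finally, either bead-based purification or lysis for direct PCR precedes semi-quantitative PCR.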

Escherichia coli [3] = assay: Molecular phenotypic antimicrobial susceptibility test (extraction or DNA purification prior to PCR)
Outline: as §1

[4] = tested on: pathogens of clinical samples; assay: Molecular phenotypic antimicrobial susceptibility test of clinical samples, extraction DNA purification step prior to PCR (Table 6)
Outline: as §1

[5] = E. coli #1 - WDCM 00090 - 6.2×E3
[6] = E. coli #2 - WDCM 00090 - 6.2×E3
[7] = E. coli, clinical sample of r10-r24
[8] = E. coli, clinical sample of r158-r172
[9] = E. faecalis, clinical sample of r93-r99
[10] = E. faecalis, clinical sample of r100-r106
[11] = E. faecalis, clinical sample of r107-r113
[12] = E. faecalis, clinical sample of r114-r120
[13] = E. faecalis, clinical sample of r151-r157
[14] = K. aerogenes, clinical sample of r136-r150
[15] = K. pneumoniae, clinical sample of r121-r135
[16] = M. morganii, clinical sample of r55-r69
[17] = M. morganii, clinical sample of r70-r84
[18] = P. mirabilis, clinical sample of r25-r39
[19] = P. mirabilis, clinical sample of r40-r54
[20] = E. coli isolate 4, at sensitive breakpoint
[21] = E. coli isolate 5, Ct at control (average) 21.0933
[22] = E. coli isolate 5, at sensitive breakpoint

## CC1(C)S[C@@H]2[C@H](NC(=O)[C@H](N)c3ccccc3)C(=O)N2[C@H]1C(=O)O [Ampicillin]
Escherichia coli [1]; [5]
  Traditional Culture Results: Sensitive
Escherichia coli [1]; [6]
  Traditional Culture Results: Sensitive
Escherichia coli [1]; E. coli isolate 4 (Table 3)
  Traditional Culture Result: Resistant
Escherichia coli [1]; E. coli isolate 5 (Table 3)
  Traditional Culture Result: Sensitive
Escherichia coli [1]; E. coli isolate JJ1887
  Traditional Culture Result: Resistant
[2]; [7]
  Molecular Antibiotic Susceptibility Result: Resistant
[2]; E. coli, clinical sample of r10-r24, Ct control avg 12.97
  Ct: 12.039
[2]; [8]
  Molecular Antibiotic Susceptibility Result: Sensitive (Antimicrobial wells with pathogen load detected below the control wells (typically >2 cycle thresholds later) may be reported as Sensitive)
[2]; E. coli, clinical sample of r158-r172, Ct control avg 12.894
  Ct: 28.274
[2]; [9]
  Molecular Antibiotic Susceptibility Result: Sensitive (Antimicrobial wells with pathogen load detected below the control wells (typically >2 cycle thresholds later) may be reported as Sensitive)
[2]; E. faecalis, clinical sample of r93-r99, Ct control avg 22.011
  Ct: 29.527
[2]; [10]
  Molecular Antibiotic Susceptibility Result: sensitive
[2]; E. faecalis, clinical sample of r100-r106, Ct control avg 21.027
  Ct: 33.467
[2]; [11]
  Molecular Antibiotic Susceptibility Result: sensitive
[2]; E. faecalis, clinical sample of r107-r113, Ct control avg 20.529
  Ct: 27.555
[2]; [12]
  Molecular Antibiotic Susceptibility Result: Sensitive (Antimicrobial wells with pathogen load detected below the control wells (typically >2 cycle thresholds later) may be reported as Sensitive)
[2]; E. faecalis, clinical sample of r114-r120, Ct control avg 20.909
  Ct: 27.767
[2]; [13]
  Molecular Antibiotic Susceptibility Result: Sensitive (Antimicrobial wells with pathogen load detected below the control wells (typically >2 cycle thresholds later) may be reported as Sensitive)
[2]; E. faecalis, clinical sample of r151-r157, Ct control avg 18.551
  Ct: 32.884
[2]; [14]
  Molecular Antibiotic Susceptibility Result: Sensitive (Antimicrobial wells with pathogen load detected below the control wells (typically >2 cycle thresholds later) may be reported as Sensitive)
[2]; K. aerogenes, clinical sample of r136-r150, Ct control avg 13.854
  Ct: 16.046
[2]; [15]
  Molecular Antibiotic Susceptibility Result: Resistant
[2]; K. pneumoniae, clinical sample of r121-r135, Ct control avg […]
  Ct: 14.269
[2]; [16]
  Molecular Antibiotic Susceptibility Result: Resistant
[2]; M. morganii, clinical sample of r55-r69, Ct control avg 12.09
  Ct: 10.538
[2]; [17]
  Molecular Antibiotic Susceptibility Result: Resistant
[2]; M. morganii, clinical sample of r70-r84, Ct control avg 11.677
  Ct: 11.867
[2]; [18]
  Molecular Antibiotic Susceptibility Result: Sensitive (Antimicrobial wells with pathogen load detected below the control wells (typically >2 cycle thresholds later) may be reported as Sensitive)
[2]; P. mirabilis, clinical sample of r25-r39, Ct control avg 11.801
  Ct: 29.219
[2]; [19]
  Molecular Antibiotic Susceptibility Result: Sensitive (Antimicrobial wells with pathogen load detected below the control wells (typically >2 cycle thresholds later) may be reported as Sensitive)
[2]; P. mirabilis, clinical sample of r40-r54, Ct control avg 10.06
  Ct: 30.995
Escherichia coli [3]; [20]
  Molecular Antimicrobial Susceptibility Result: Resistant
Escherichia coli [3]; [21]
  Ct at Sensitive Breakpoint: 24.64
Escherichia coli [3]; [22]
  Molecular Antimicrobial Susceptibility Result: Sensitive (Antimicrobial wells with pathogen load detected below the control wells (typically >2 cycle thresholds later) may be reported as Sensitive)
[4]; [7]
  Molecular Antibiotic Susceptibility Result: Resistant
[4]; [8]
  Molecular Antibiotic Susceptibility Result: Sensitive (Antimicrobial wells with pathogen load detected below the control wells (typically >2 cycle thresholds later) may be reported as Sensitive)
[4]; E. coli, clinical sample of r158-r172, Ct Control Avg 20.146
  Ct: 29.961
[4]; [9]
  Molecular Antibiotic Susceptibility Result: Sensitive (Antimicrobial wells with pathogen load detected below the control wells (typically >2 cycle thresholds later) may be reported as Sensitive)
[4]; E. faecalis, clinical sample of r93-r99, Ct Control Avg 22.987
  Ct: 31.697
[4]; [10]
  Molecular Antibiotic Susceptibility Result: sensitive
[4]; E. faecalis, clinical sample of r100-r106, Ct Control Avg 23.073
  Ct: 37.6
[4]; [11]
  Molecular Antibiotic Susceptibility Result: sensitive
[4]; E. faecalis, clinical sample of r107-r113, Ct Control Avg 22.144
  Ct: 29.684
[4]; [12]
  Molecular Antibiotic Susceptibility Result: Sensitive (Antimicrobial wells with pathogen load detected below the control wells (typically >2 cycle thresholds later) may be reported as Sensitive)
[4]; E. faecalis, clinical sample of r114-r120, Ct Control Avg 20.822
  Ct: 33.01
[4]; [13]
  Molecular Antibiotic Susceptibility Result: Sensitive (Antimicrobial wells with pathogen load detected below the control wells (typically >2 cycle thresholds later) may be reported as Sensitive)
[4]; E. faecalis, clinical sample of r151-r157, Ct Control Avg 20.56
  Ct: Undet
[4]; [14]
  Molecular Antibiotic Susceptibility Result: Resistant
[4]; K. aerogenes, clinical sample of r136-r150, Ct Control Avg 19.994
  Ct: 19.504
[4]; [15]
  Molecular Antibiotic Susceptibility Result: Resistant
[4]; K. pneumoniae, clinical sample of r121-r135, Ct Control Avg 24.272
  Ct: 21.189
[4]; [16]
  Molecular Antibiotic Susceptibility Result: Resistant
[4]; M. morganii, clinical sample of r55-r69, Ct Control Avg 28.86
  Ct: 25.767
[4]; [17]
  Molecular Antibiotic Susceptibility Result: Resistant
[4]; M. morganii, clinical sample of r70-r84, Ct Control Avg 27.053
  Ct: 25.947
[4]; [18]
  Molecular Antibiotic Susceptibility Result: Sensitive (Antimicrobial wells with pathogen load detected below the control wells (typically >2 cycle thresholds later) may be reported as Sensitive)
[4]; P. mirabilis, clinical sample of r25-r39, Ct Control Avg 26.064
  Ct: 34.177
[4]; [19]
  Molecular Antibiotic Susceptibility Result: Sensitive (Antimicrobial wells with pathogen load detected below the control wells (typically >2 cycle thresholds later) may be reported as Sensitive)
[4]; P. mirabilis, clinical sample of r40-r54, Ct Control Avg 26.987
  Ct: 35.741

## Cc1nnc(SCC2=C(C(=O)O)N3C(=O)[C@@H](NC(=O)Cn4cnnn4)[C@H]3SC2)s1 [Cefazolin]
Escherichia coli [1]; [5]
  Traditional Culture Results: Sensitive
Escherichia coli [1]; [6]
  Traditional Culture Results: Sensitive
Escherichia coli [1]; E. coli isolate 1 (Table 3)
  Traditional Culture Result: Resistant
Escherichia coli [1]; E. coli isolate 2 (Table 3)
  Traditional Culture Result: Resistant
Escherichia coli [1]; E. coli isolate 3 (Table 3)
  Traditional Culture Result: Resistant
Escherichia coli [1]; E. coli isolate 4 (Table 3)
  Traditional Culture Result: Resistant
Escherichia coli [1]; E. coli isolate 5 (Table 3)
  Traditional Culture Result: Sensitive
Escherichia coli [1]; E. coli isolate JJ1887
  Traditional Culture Result: Resistant
[2]; [7]
  Molecular Antibiotic Susceptibility Result: Sensitive (Antimicrobial wells with pathogen load detected below the control wells (typically >2 cycle thresholds later) may be reported as Sensitive)
[2]; [8]
  Molecular Antibiotic Susceptibility Result: Sensitive (Antimicrobial wells with pathogen load detected below the control wells (typically >2 cycle thresholds later) may be reported as Sensitive)
[2]; [14]
  Molecular Antibiotic Susceptibility Result: Sensitive (Antimicrobial wells with pathogen load detected below the control wells (typically >2 cycle thresholds later) may be reported as Sensitive)
[2]; [15]
  Molecular Antibiotic Susceptibility Result: Sensitive (Antimicrobial wells with pathogen load detected below the control wells (typically >2 cycle thresholds later) may be reported as Sensitive)
[2]; [16]
  Molecular Antibiotic Susceptibility Result: Resistant
[2]; [17]
  Molecular Antibiotic Susceptibility Result: Resistant
[2]; [18]
  Molecular Antibiotic Susceptibility Result: Sensitive (Antimicrobial wells with pathogen load detected below the control wells (typically >2 cycle thresholds later) may be reported as Sensitive)
[2]; [19]
  Molecular Antibiotic Susceptibility Result: Sensitive (Antimicrobial wells with pathogen load detected below the control wells (typically >2 cycle thresholds later) may be reported as Sensitive)
Escherichia coli [3]; E. coli isolate 1, Ct at control (average) 21.238
  Ct at Sensitive Breakpoint: 20.925
Escherichia coli [3]; E. coli isolate 1, at sensitive breakpoint
  Molecular Antimicrobial Susceptibility Result: Resistant
Escherichia coli [3]; E. coli isolate 2, Ct at control (average) 21.270
  Ct at Sensitive Breakpoint: 19.313
Escherichia coli [3]; E. coli isolate 2, at sensitive breakpoint
  Molecular Antimicrobial Susceptibility Result: Resistant
Escherichia coli [3]; E. coli isolate 3, Ct at control (average) 22.0995
  Ct at Sensitive Breakpoint: 20.834
Escherichia coli [3]; E. coli isolate 3, at sensitive breakpoint
  Molecular Antimicrobial Susceptibility Result: Resistant
Escherichia coli [3]; E. coli isolate 4, Ct at control (average) 17.5733
  Ct at Sensitive Breakpoint: 17.23
Escherichia coli [3]; [20]
  Molecular Antimicrobial Susceptibility Result: Resistant
Escherichia coli [3]; [21]
  Ct at Sensitive Breakpoint: 25.36
Escherichia coli [3]; [22]
  Molecular Antimicrobial Susceptibility Result: Sensitive (Antimicrobial wells with pathogen load detected below the control wells (typically >2 cycle thresholds later) may be reported as Sensitive)
[4]; [7]
  Molecular Antibiotic Susceptibility Result: Sensitive (Antimicrobial wells with pathogen load detected below the control wells (typically >2 cycle thresholds later) may be reported as Sensitive)
[4]; [8]
  Molecular Antibiotic Susceptibility Result: Sensitive (Antimicrobial wells with pathogen load detected below the control wells (typically >2 cycle thresholds later) may be reported as Sensitive)
[4]; [14]
  Molecular Antibiotic Susceptibility Result: Resistant
[4]; [15]
  Molecular Antibiotic Susceptibility Result: Sensitive (Antimicrobial wells with pathogen load detected below the control wells (typically >2 cycle thresholds later) may be reported as Sensitive)
[4]; [16]
  Molecular Antibiotic Susceptibility Result: Resistant
[4]; [17]
  Molecular Antibiotic Susceptibility Result: Resistant
[4]; [18]
  Molecular Antibiotic Susceptibility Result: Resistant
[4]; [19]
  Molecular Antibiotic Susceptibility Result: Sensitive (Antimicrobial wells with pathogen load detected below the control wells (typically >2 cycle thresholds later) may be reported as Sensitive)
